Assay results: US20110045102A1, “Cancer chemotherapy compositions comprising PI3K pathway modulators and triptolide” (priority 2005, published 2011)

How the values were obtained:
[1] = tested on: OCC1-SEAP-12 ovarian cancer cells; type: in vivo
Experimental: Athymic nude mice were obtained and inoculated intraperitoneally with OCC1-SEAP-12 cells as described above in Examples I and II. Animals received injections of either vehicle control (PBS containing 25% DMSO), or carboplatin (60 mg/kg) alone, or in combination with LY294002 (50 mg/kg) every other day for 6 days. Blood samples were collected into capillary tubes from saphenous vein lancings at regular intervals during and following treatments. Capillary tubes were centrifuged, and the plasma samples were frozen (−20° C.), until the time of SEAP assay. The Washington State University Animal Care and Use Committee approved all procedures.
Blood plasma and cell culture medium samples were assayed for SEAP activity using the Great EscAPe SEAP fluorescence detection kit (Clontech Laboratories, Palo Alto, Calif.) as described above in Examples I and II. Blood plasma samples were diluted 1:100 prior to the assay to bring values within the linear range of the standard curve. The intraassay and interassay coefficients of variation were 2.5% and 18.8%, respectively.

Akt = assay: Western blot for Akt phosphorylation (Example III); type: cell-based, human; conditions: 6 hr and 24 hr; LY294002 10 (FIG. 18 legend: mM), carboplatin 50
Experimental: The OCC1-SEAP-12 cells were grown to 80% confluence. […] […] Total cell lysates were subjected to SDS polyacrylamide gel electrophoresis 9 page) and transferred to PVDF membranes (Millipore, Bedford, Mass.). Membranes were immunoblotted with antibodies to both the phosphorylated and non-phosphorylated forms of […] (Cell Signaling Technology, Beverly, Mass.), or alternatively, with antibodies to cleaved and full length caspase-3 (Cell Signaling Technology, Beverly, Mass.).

[2] = tested on: OCC1-SEAP-12 ovarian cancer cells; assay: Cell survival by DNA content of culture wells (Example III); type: cell-based, human
Experimental: Cell survival was assessed as cell number remaining in culture following exposure to treatments. The DNA content of individual culture wells was used as an indication of cell number. Cells plated in 24 well culture plates were allowed to approach confluence (80%) in Ham's F-12 medium plus 10% BCS. […] Media aliquots were taken when appropriate for SEAP analysis. The DNA was measured fluorometrically as previously described (Nilsson […], Ligon […]. An in vivo mouse reporter gene (human secreted alkaline phosphatase) model to monitor ovarian tumor growth and response to therapeutics. Cancer Chemother Pharmacol 2002; 49(2):93-100). Briefly, the fluorescence of aliquots of sonicated cell suspensions into which SYBR Green I fluorescent dye (Molecular Probes, Eugene Oreg.) had been incorporated, was measured.

[3] = tested on: OCC1-SEAP-12 ovarian cancer cells; conditions: LY294002 alone (Westfall and Skinner 2005); cited from earlier work
caspase 3 = assay: Western blot for active caspase 3 (Example III); type: cell-based, human; conditions: LY294002 10 μM, carboplatin 50 μg/ml
Experimental: The OCC1-SEAP-12 cells were grown to 80% confluence. Cultures were incubated in DMEM plus 0.1% bovine serum albumin (BSA) and 0.1% BCS to which either vehicle control, carboplatin (0-50 μg/ml), LY294002 (0-20 μM) or combinations of these treatments. Following 24, 48 or 72 hr cells were lysed with sample buffer (62.5 mM Tris-HCl, pH 6.8, 2% SDS, 5% glycerol, […], 0.5% β-mercaptoethanol). Total cell lysates were subjected to SDS polyacrylamide gel electrophoresis 9 page) and transferred to PVDF membranes (Millipore, Bedford, Mass.). Membranes were immunoblotted with antibodies to both the phosphorylated and non-phosphorylated forms of […] (Cell Signaling Technology, Beverly, Mass.), or alternatively, with antibodies to cleaved and full length caspase-3 (Cell Signaling Technology, Beverly, Mass.).

OCC1-SEAP-12 cells = assay: Growth assay, [3H] thymidine incorporation (Example III); type: cell-based, human; conditions: LY294002, 18h treatment
Experimental: Cell proliferation was analyzed by determining the amount of [^3H] thymidine incorporation Into newly synthesized DNA. The OCC1-SEAP-12 cells were plated in 24 well plates in Ham's F-12 medium plus 10% BCS and allowed to reach 50 to 70% confluence. Following a 48 hr serum starvation, the culture medium was changed to Dulbecco's Modified Eagle Medium (DMEM) plus 0.1% BSA and 0.1% BCS containing either vehicle control or carboplatin (0-100 μg/ml) alone, or in combination with LY294002 (0-20 μM). Treatments were removed after 18h and cells were incubated for 4 hr in medium containing 5 μCi/ml of [^3H] thymidine. Medium was removed and cells were disrupted by sonication in phosphate buffered saline (PBS). An aliquot of the sonicated solution of PBS was loaded onto a DEAE filtration plate (Millipore, Bedford, Mass.), and individual filters with bound DNA were collected for scintillation counting. Data was normalized to total DNA per well and was determined by a SYBR green fluorescent assay (Nilsson E E, Westfall S D, McDonald C, Ligon T, Sadler-Riggleman I, Skinner M K. An in vivo mouse reporter gene (human secreted alkaline phosphatase) model to monitor ovarian tumor growth and response to therapeutics. Cancer Chemother Pharmacol 2002; 49(2):93-100).

caspase-3 = assay: Western blot for active caspase-3 (Example II); type: cell-based, human; conditions: 24 h; TPL 100 ng/ml, carboplatin 50
breast cancer xenografts = conditions: TPL 0.5 mg/kg; cited from earlier work
OCC1-SEAP cell cultures = assay: DNA fragmentation (laddering) on agarose gel (Example II); type: cell-based, human; conditions: 48 hr; TPL 100 ng/ml, carboplatin 50 μg/ml
Experimental: Following 48 h to 72 h treatment incubations, cells were suspended into culture medium and pelleted in tubes. DNA was isolated from collected cells using a Puregene™ DNA isolation kit (Gentra Systems, Minneapolis, Minn.). The quantity and purity of nucleic acid preparations were estimated by measuring the absorbance of each sample (A260/A280). DNA preparations (10 μg/well) were loaded onto 1.2% agarose gels and visualized with ethidium bromide stain.

OCC1-SEAP tumor = assay: Nude mouse tumor model, intraperitoneal OCC1-SEAP cells, plasma SEAP (Example II); type: in vivo
Text: Athymic nude mice (NCR Nu/Nu) were either purchased from Taconic (Germantown, N.Y.) or bred in-house at Washington State University, Pullman, Wash. The OCC1-SEAP cells were collected in Hank's balanced salt solution and counted prior to injection. Treatments were initiated 7 to 10 days following an intraperitoneal inoculation of mice with 1×10^7 OCC1-SEAP cells, as described above, in Example I.
Stock solutions of carboplatin (paraplatin; Bristol-Myers Squibb, Princeton, N.J.) and TPL (Calbiochem, CA), were prepared in sterile filtered PBS and DMSO, respectively. Animals received intraperitoneal injections of either vehicle controlled (PBS containing 4% DMSO), or carboplatin (60 mg/kg), alone, or in combination with TPL (0-1.0 mg/kg), every other day for 5 days. Alternatively, TPL (0.15 mg/kg) was injected every day for 10 days. For these experiments, carboplatin was administered under the same schedule of every other day for 5 days. Some mice were also treated with 40 mg/kg of LY294002 every other day for 5 days, with an intraperitoneal injection in the presence of TPL and carboplatin. Blood samples were collected into capillary tubes from saphenous vein lancings at regular intervals during and following treatments. The capillary tubes were centrifuged and the plasma samples were frozen at −20° C., until the time of SEAP assay. The Washington State University Animal Care and Use Committee approved all procedures.
Blood plasma and cell culture medium samples were assayed for SEAP activity using the Great EscAPe SEAP fluorescence detection kit (Clontech Laboratories, Palo Alto, Calif.), as described above in Example I. Blood plasma samples were diluted 1:100, prior to the assay to bring values within the linear range of the standard curve. The intraassay and interassay coefficients of variation were 2.5% and 18.8%, respectively. In the case of the experiments in which mice were treated with a combination of TPL, LY294002 and carboplatin, there was some variation in the extent of tumor growth in the control mice. In order to better compare response to treatment across experiments, the SEAP assay data between experiments were normalized by dividing each data point by the overall mean of all SEAP measurements from that experiment and up, through day 18. The normalized data then reflect the relative tumor burden of each mouse, compared to others in the experimental group, and can be combined across experiments.

[4] = TPL 0.15 mg/kg, nude mice; cited from earlier work
solid tumor types = conditions: TPL 0.15 mg/kg; cited from earlier work
[5] = tested on: OCC1-SEAP ovarian cancer cells; assay: Cell survival by DNA content of culture wells (Example II); type: cell-based, human; conditions: 48 hours; triptolide 100 ng/ml, carboplatin 50 (FIG. 8 legend: mg/ml)
Experimental: Cell survival was assessed as the number of cells remaining in culture, following exposure to treatments. The DNA content of individual culture wells was used as an indication of cell number. Cells plated in 24 well culture plates were allowed to approach confluence (80%) in Ham's F-12 medium plus 10% BCS. Cultures were then incubated in DMEM, plus 0.1% BSA and 0.1% BCS, in the presence of vehicle control, carboplatin (0-100 μg/ml), Triptolide (100 ng/ml) or a combination of these for 24 to 96 hrs. Media aliquots were taken when appropriate for SEAP analysis. The DNA was measured fluorometrically, as described above, in Example I. Briefly, the fluorescence of an aliquot of sonicated cell suspension, into which SYBR Green I fluorescent dye (Molecular Probes, Eugene, Oreg.), had been incorporated was measured.

[6] = tested on: OCC1-SEAP intraperitoneal tumors; assay: Nude mouse intraperitoneal OCC1-SEAP tumor model, plasma SEAP (Example I); type: in vivo, athymic nude mice
Experimental: Athymic nude mice (Nu/Nu; Charles River Laboratories, Wilmington, Mass.) weighing about 25 g were used for in vivo studies.
Three mice were injected intraperitoneally with 1×10^7 OCC1-SEAP-12 cells. The experimental treatments began after 1 week. […] Alternatively, four mice with well-developed tumors (2-4 weeks after injection) were treated with a high dose of carboplatin (60 mg/kg) three times over a period of 4 days. After death all visible intraperitoneal tumors were dissected out and weighed.
Blood samples were collected from saphenous vein lancings three times per week into heparinized capillary tubes. The capillary tubes were centrifuged and the plasma samples were frozen at −20° C. until the time of SEAP assay. Blood samples were taken for SEAP assay from the mice within 24 hours of death 2-3 weeks after intraperitoneal injection of OCC1-SEAP cells.
Blood plasma and cell culture medium samples were assayed for SEAP activity using the Great EscAPe SEAP fluorescence detection kit (Clontech Laboratories, Palo Alto, Calif.). SEAP is secreted at a constant rate by transfected tumor cells and distributed throughout the body or into the culture medium. SEAP is heat stable, so any endogenous alkaline phosphatase activity in blood plasma is destroyed by heat treatment of the samples (65° C. for 30 minutes) during the assay. The SEAP enzyme in each sample acts on the substrate 4-methylumbelliferyl phosphate during a 1 hour incubation at room temperature to produce a fluorescent product with excitation and emission peaks at 360 and 449 nm, respectively. A fluorimeter is then used to measure SEAP activity. The intra-assay and inter-assay coefficients of variation were 2.5% and 18.8%, respectively. Blood plasma samples were diluted 1:100 prior to the assay to bring values within the linear range of the standard curve.

O=c1cc(N2CCOCC2)oc2c(-c3ccccc3)cccc12 [LY294002, 2-(4-morpholinyl)-8-phenyl-4H-1-benzopyran-4-one]
abdominal swelling (FIG. 24) ([1]; physical appearance of mice after treatment): displayed abdominal swelling | tumor size vs vehicle control (FIG. 23) ([1]; single agents: LY294002 50 mg/kg, carboplatin 60 mg/kg): no significant difference | Akt phosphorylation (Akt): blocked basal levels | reduction of cell number ([2]; 5 μM LY294002, 48 hr incubation): 22% | reduction of cell number ([2]; 10 μM LY294002, 48 hr incubation): 44% | effect on ovarian cancer tumor progression [3]: negligible effects | time at which active 17 kDa caspase 3 appears (caspase 3): 72 h | block of basal DNA synthesis (OCC1-SEAP-12 cells): 50%

CC(C)[C@]12O[C@H]1[C@@H]1O[C@]13[C@]1(O[C@H]1C[C@H]1C4=C(CC[C@@]13C)C(=O)OC4)[C@@H]2O [TPL, Triptolide]
induction of active caspase-3 (caspase-3): robust induction | toxicity of dose (breast cancer xenografts): lethal | DNA laddering (OCC1-SEAP cell cultures): evident | toxicity (OCC1-SEAP tumor; TPL 0.5 mg/kg ip every other day over 5 days): no apparent toxicity | mice expired within 24 hours (OCC1-SEAP tumor; TPL 1.0 mg/kg intraperitoneal): 2 of 3 | SEAP values vs vehicle control (OCC1-SEAP tumor; TPL 0.125, 0.25 or 0.5 mg/kg ip every other day over 5 days): not significant differences | tumor burden vs vehicle control (FIG. 11) (OCC1-SEAP tumor; high dose, short duration: TPL 0.5 mg/kg, carboplatin 60 mg/kg every other day for 5 days): no significant difference | tumor burden as measured by SEAP levels vs vehicle control (FIG. 12) (OCC1-SEAP tumor; low dose, long duration: TPL 0.15 mg/kg every day for 10 days, carboplatin 60 mg/kg every other day for 5 days): no significant difference | dose as share of the maximum tolerated dose [4]: 60% | inhibition of growth and metastasis of solid tumors (solid tumor types): potent | decrease in cell survival (μg DNA/ml) compared to control cultures [5]: approximately 40%

N.N.[Cl][Pt][Cl] [cisplatin]
tumor growth by plasma SEAP compared to vehicle controls ([6]; 3 or 10 mg/kg cisplatin every 48-72 h over a 2-week period, intraperitoneal): decreased tumor growth | difference in tumor growth between 3 and 10 mg/kg ([6]; cisplatin 3 vs 10 mg/kg): No difference
